Reference: ChEMBL document CHEMBL3352739, “Comparative in vivo evaluation of polyalkoxy substituted 4H-chromenes and oxa-podophyllotoxins as microtubule destabilizing agents in the phenotypic sea urchin embryo assay” (2014)

Experiments:
[1] = system: Paracentrotus lividus; assay: Antimitotic microtubule destabilizing activity in Paracentrotus lividus L embryos assessed as induction of cleavage arrest
[2] = Growth inhibition of human H1299 cells after 48 hrs by sulforhodamine B assay; format: functional; settings: NCI-H1299, 48 h
[3] = system: Paracentrotus lividus; assay: Antimitotic microtubule destabilizing activity in Paracentrotus lividus L embryos assessed as induction of cleavage alteration
[4] = system: T47D; assay: Growth inhibition of human T47D cells after 48 hrs by sulforhodamine B assay; format: functional
[5] = system: ZR-75-1; assay: Growth inhibition of human ZR-75-1 cells after 48 hrs by sulforhodamine B assay; format: functional; settings: ZR-75-1, 48 h
[6] = system: Paracentrotus lividus; assay: Antimitotic microtubule destabilizing activity in Paracentrotus lividus L embryos assessed as induction of embryo spinning
[7] = system: HL-60(TB); assay: Growth inhibition of human HL-60(TB) cells after 48 hrs by sulforhodamine B assay; format: functional; settings: HL-60, 48 h
[8] = Growth inhibition of human Hs 578T cells after 48 hrs by sulforhodamine B assay; format: functional
[9] = system: MDA-MB-468; assay: Growth inhibition of human MDA-MB-468 cells after 48 hrs by sulforhodamine B assay; format: functional; settings: MDA-MB-468, 48 h
[10] = system: IGROV-1; assay: Growth inhibition of human IGROV1 cells after 48 hrs by sulforhodamine B assay; format: functional; settings: IGROV-1, 48 h
[11] = system: SW-620; assay: Growth inhibition of human SW620 cells after 48 hrs by sulforhodamine B assay; format: functional; settings: SW-620, 48 h
[12] = Growth inhibition of human PC3 cells after 48 hrs by sulforhodamine B assay; format: functional; settings: PC-3, 48 h
[13] = system: SNB-75; assay: Growth inhibition of human SNB75 cells after 48 hrs by sulforhodamine B assay; format: functional; settings: SNB-75, 48 h
[14] = system: M14; assay: Growth inhibition of human M14 cells after 48 hrs by sulforhodamine B assay; format: functional; settings: M14, 48 h
[15] = system: HOP-62; assay: Growth inhibition of human HOP62 cells after 48 hrs by sulforhodamine B assay; format: functional; settings: HOP-62, 48 h
[16] = Growth inhibition of human RXF393 cells after 48 hrs by sulforhodamine B assay; format: functional; settings: RXF 393, 48 h
[17] = system: SNB-19; assay: Growth inhibition of human SNB19 cells after 48 hrs by sulforhodamine B assay; format: functional; settings: SNB-19, 48 h
[18] = system: SN12C; assay: Growth inhibition of human SN12C cells after 48 hrs by sulforhodamine B assay; format: functional
[19] = Growth inhibition of human OVCAR4 cells after 48 hrs by sulforhodamine B assay; format: functional; settings: OVCAR-4, 48 h
[20] = system: SK-MEL-2; assay: Growth inhibition of human SK-MEL-2 cells after 48 hrs by sulforhodamine B assay; format: functional; settings: SK-MEL-2, 48 h
[21] = system: TK-10; assay: Growth inhibition of human TK10 cells after 48 hrs by sulforhodamine B assay; format: functional; settings: TK-10, 48 h
[22] = system: 786-0; assay: Growth inhibition of human 786-0 cells after 48 hrs by sulforhodamine B assay; format: functional; settings: 786-0, 48 h
[23] = Growth inhibition of human NCI-ADR-RES cells after 48 hrs by sulforhodamine B assay; format: functional
[24] = system: DU-145; assay: Growth inhibition of human DU145 cells after 48 hrs by sulforhodamine B assay; format: functional; settings: DU-145, 48 h
[25] = Growth inhibition of human UACC257 cells after 48 hrs by sulforhodamine B assay; format: functional; settings: UACC-257, 48 h
[26] = system: NCI-H322M; assay: Growth inhibition of human NCI-H322M cells after 48 hrs by sulforhodamine B assay; format: functional
[27] = system: MDA-MB-435; assay: Growth inhibition of human MDA-MB-435 cells after 48 hrs by sulforhodamine B assay; format: functional; settings: MDA-MB-435, 48 h
[28] = system: SK-MEL-5; assay: Growth inhibition of human SK-MEL-5 cells after 48 hrs by sulforhodamine B assay; format: functional; settings: SK-MEL-5, 48 h
[29] = system: SK-OV-3; assay: Growth inhibition of human SKOV3 cells after 48 hrs by sulforhodamine B assay; format: functional; settings: SK-OV-3, 48 h
[30] = Growth inhibition of human LOXIMVI cells after 48 hrs by sulforhodamine B assay; format: functional; settings: LOX IMVI
[31] = system: KM12; assay: Growth inhibition of human KM12 cells after 48 hrs by sulforhodamine B assay; format: functional; settings: KM12, 48 h
[32] = Growth inhibition of human UO31 cells after 48 hrs by sulforhodamine B assay; format: functional; settings: UO-31, 48 h
[33] = Growth inhibition of human OVCAR8 cells after 48 hrs by sulforhodamine B assay; format: functional; settings: OVCAR-8, 48 h
[34] = Growth inhibition of human EKVX cells after 48 hrs by sulforhodamine B assay; format: functional
[35] = system: NCI-H522; assay: Growth inhibition of human NCI-H522 cells after 48 hrs by sulforhodamine B assay; format: functional; settings: NCI-H522, 48 h
[36] = Growth inhibition of human BT549 cells after 48 hrs by sulforhodamine B assay; format: functional; settings: BT-549, 48 h
[37] = system: Malme-3M; assay: Growth inhibition of human MALME-3M cells after 48 hrs by sulforhodamine B assay; format: functional
[38] = Growth inhibition of human COLO205 cells after 48 hrs by sulforhodamine B assay; format: functional; settings: COLO 205, 48 h
[39] = system: NCI-H460; assay: Growth inhibition of human NCI-H460 cells after 48 hrs by sulforhodamine B assay; format: functional; settings: NCI-H460, 48 h
[40] = system: SK-MEL-28; assay: Growth inhibition of human SK-MEL-28 cells after 48 hrs by sulforhodamine B assay; format: functional; settings: SK-MEL-28, 48 h
[41] = Growth inhibition of human HCC2998 cells after 48 hrs by sulforhodamine B assay; format: functional; settings: HCC 2998, 48 h
[42] = system: CAKI-1; assay: Growth inhibition of human CAKI-1 cells after 48 hrs by sulforhodamine B assay; format: functional; settings: CAKI-1, 48 h
[43] = system: CCRF-CEM; assay: Growth inhibition of human CCRF-CEM cells after 48 hrs by sulforhodamine B assay; format: functional
[44] = Growth inhibition of human MOLT4 cells after 48 hrs by sulforhodamine B assay; format: functional; settings: MOLT-4, 48 h
[45] = Growth inhibition of human SF295 cells after 48 hrs by sulforhodamine B assay; format: functional; settings: SF-295, 48 h
[46] = system: NCI-H23; assay: Growth inhibition of human NCI-H23 cells after 48 hrs by sulforhodamine B assay; format: functional; settings: NCI-H23, 48 h
[47] = system: HT-29; assay: Growth inhibition of human HT-29 cells after 48 hrs by sulforhodamine B assay; format: functional; settings: HT-29, 48 h
[48] = Growth inhibition of human OVCAR5 cells after 48 hrs by sulforhodamine B assay; format: functional; settings: OVCAR-5, 48 h
[49] = Growth inhibition of human HCT15 cells after 48 hrs by sulforhodamine B assay; format: functional; settings: HCT-15, 48 h
[50] = system: NCI-H226; assay: Growth inhibition of human NCI-H226 cells after 48 hrs by sulforhodamine B assay; format: functional; settings: NCI-H226, 48 h
[51] = system: A498; assay: Growth inhibition of human A498 cells after 48 hrs by sulforhodamine B assay; format: functional; settings: A498, 48 h
[52] = system: SR; assay: Growth inhibition of human SR cells after 48 hrs by sulforhodamine B assay; format: functional
[53] = system: MCF7; assay: Growth inhibition of human MCF7 cells after 48 hrs by sulforhodamine B assay; format: functional; settings: MCF7, 48 h
[54] = Growth inhibition of human UACC62 cells after 48 hrs by sulforhodamine B assay; format: functional; settings: UACC-62, 48 h
[55] = Growth inhibition of human OVCAR3 cells after 48 hrs by sulforhodamine B assay; format: functional; settings: OVCAR-3, 48 h
[56] = system: A549; assay: Growth inhibition of human A549/ATCC cells after 48 hrs by sulforhodamine B assay; format: functional; settings: A549, 48 h
[57] = Growth inhibition of human RPMI8226 cells after 48 hrs by sulforhodamine B assay; format: functional; settings: RPMI-8226, 48 h
[58] = Cytotoxicity against human NCI60 cells; format: functional
[59] = system: SF-268; assay: Growth inhibition of human SF268 cells after 48 hrs by sulforhodamine B assay; format: functional; settings: SF-268, 48 h
[60] = Growth inhibition of human HCT116 cells after 48 hrs by sulforhodamine B assay; format: functional; settings: HCT-116, 48 h
[61] = Growth inhibition of human SF539 cells after 48 hrs by sulforhodamine B assay; format: functional; settings: SF-539, 48 h
[62] = system: MDA-MB-231; assay: Growth inhibition of human MDA-MB-231 cells after 48 hrs by sulforhodamine B assay; format: functional; settings: MDA-MB-231, 48 h
[63] = system: U-251; assay: Growth inhibition of human U251 cells after 48 hrs by sulforhodamine B assay; format: functional; settings: U-251, 48 h

## COc1cc(OC)cc(C2C(C#N)=C(N)Oc3cc(OC)ccc32)c1 (configuration not stated)
[1]
  EC: 0.005 µM
[2]
  GI50: 32 nM
[3]
  EC: 0.0005 µM
[4]
  GI50: 14 nM
[5]
  GI50: 9 nM
[6]
  EC: 0.02 µM

## COc1cccc(C2C(C#N)=C(N)Oc3cc4c(cc32)OCO4)c1 (configuration not stated)
[7]
  GI50: 24.2 nM
[8]
  GI50: 31.6 nM
[9]
  GI50: 25.4 nM
[10]
  GI50: 97.3 nM
[11]
  GI50: 36.5 nM
[1]
  EC: 0.05 µM
[12]
  GI50: 65.6 nM
[13]
  GI50: 23.8 nM
[14]
  GI50: 54.9 nM
[15]
  GI50: 43.2 nM
[16]
  GI50: 29 nM
[17]
  GI50: 54.3 nM
[18]
  GI50: 79.2 nM
[19]
  GI50: 2510 nM
[20]
  GI50: 30.1 nM
[3]
  EC: 0.005 µM
[21]
  GI50: 6010 nM
[22]
  GI50: 58.7 nM
[23]
  GI50: 30.2 nM
[24]
  GI50: 84.5 nM
[25]
  GI50: 47.1 nM
[26]
  GI50: 2110 nM
[27]
  GI50: 20.3 nM
[28]
  GI50: 37.8 nM
[29]
  GI50: 36.2 nM
[30]
  GI50: 46 nM
[31]
  GI50: 36.5 nM
[32]
  GI50: 58.9 nM
[33]
  GI50: 97.1 nM
[34]
  GI50: 259 nM
[35]
  GI50: 23.1 nM
[36]
  GI50: 87.4 nM
[37]
  GI50: 50.1 nM
[38]
  GI50: 43.2 nM
[39]
  GI50: 44 nM
[40]
  GI50: 70 nM
[41]
  GI50: 101 nM
[42]
  GI50: 40.9 nM
[43]
  GI50: 36 nM
[44]
  GI50: 6.17 nM
[45]
  GI50: 34.4 nM
[46]
  GI50: 97.7 nM
[47]
  GI50: 46.2 nM
[48]
  GI50: 447 nM
[49]
  GI50: 44.7 nM
[50]
  GI50: 45.5 nM
[51]
  GI50: 29.1 nM
[52]
  GI50: 30.2 nM
[4]
  GI50: 50.2 nM
[53]
  GI50: 36.4 nM
[54]
  GI50: 43.4 nM
[55]
  GI50: 25.6 nM
[56]
  GI50: 62.5 nM
[57]
  GI50: 105 nM
[58]
  GI50: 65 nM
[59]
  GI50: 54.1 nM
[60]
  GI50: 49.8 nM
[6]
  EC: 0.2 µM
[61]
  GI50: 34.4 nM
[62]
  GI50: 2170 nM
[63]
  GI50: 46.2 nM
